Assay results taken from patent US9745321B2, “Fused pyrimidine compound, intermediate, preparation method therefor, and composition and application thereof” (SHANGHAI YINGLI PHARMACEUTICAL CO., LTD, priority 2013, dated 2017).

Tests used:
[1] = test system: Raji cells; assay: Inhibition of TNF-α generation of human Raji cell induced by human IgM; format: cell-based; conditions: 10 μg/ml IgM stimulation, 24 hrs, ELISA
Method: Screening Test for a Drug on Inhibiting TNF-α Generation of Human Raji Cell Induced by Human IgM
• 1. Raji cell lines (source of human Burkitt's lymphoma) were employed. • 2. 1×10^5/well Raji cells were plated onto a 96-well cell culture plate. • 3. Compounds to be screened were diluted to the corresponding test concentrations and added into the cell culture system 30 minutes before IgM stimulation. • 4. 10 μg/ml IgM monoclonal antibody was added into the cell culture system to stimulate the cells generating TNF-α. • 5. 24 hrs later, the amount of TNF-α generated by the cell system was measured by ELISA method. • 6.

[2] = target: PI3Kα (Homo sapiens (Human), UniProt P42336); assay: PI3Kα enzyme activity inhibition IC50 evaluation assay; format: biochemical; conditions: ratio PI3Kα vs PI3Kδ
Method: (§1) PI3Kα, PI3Kδ, PI3Kβ and PI3Kγ Enzyme Activity Inhibition IC50 Evaluation Assay
(§2) • 1. Buffer preparation: 50 mM HEPES, pH 7.5, 3 mM MgCl2, 1 mM EGTA, 100 mM NaCl, 0.03% CHAPS. • 2. Compound was formulated in 100% DMSO in a concentration gradient, and added to a 384-well plate to a final DMSO concentration of 1%. • 3. PI3Kα, PI3Kδ, PI3Kβ and PI3Kγ enzymes were diluted to an optimum concentration with the following buffer: 50 mM HEPES, pH 7.5, 3 mM MgCl2, 1 mM EGTA, 100 mM NaCl, 0.03% CHAPS, 2 mM DTT, and transferred to a 384-well plate and incubated with the compound for a certain time. • 4. Substrate was diluted to an optimum concentration with the following buffer: 50 mM HEPES, pH 7.5, 3 mM MgCl2, 1 mM EGTA, 100 mM NaCl, 0.03% CHAPS, 2 mM DTT, 50 μM PIP2, 25 μM ATP; then added to a 384-well plate to initiate the reaction, and for PI3Kα, PI3Kβ and PI3Kγ at room temperature reacted for 1 hr, for PI3Kδ at room temperature reacted for 2 hrs. For PI3Kβ and PI3Kγ, it was still necessary to further add 10 μL ADP-Glo Detection Reagent, and then equilibrated at room temperature for 30 minutes. • 5. Read Luminescense with FlexStation, and calculate the inhibition rate as the average of two tests.

[3] = target: PI3Kβ (Homo sapiens (Human), UniProt P42338); assay: PI3Kβ enzyme activity inhibition IC50 evaluation assay; format: biochemical; conditions: ratio PI3Kβ vs PI3Kδ
Method: as §1, §2

[4] = target: PI3Kγ (Homo sapiens (Human), UniProt P48736); assay: PI3Kγ enzyme activity inhibition IC50 evaluation assay; format: biochemical; conditions: ratio PI3Kγ vs PI3Kδ
Method: as §1, §2

[5] = target: PI3Kδ (Homo sapiens (Human), UniProt O00329); assay: PI3Kδ enzyme activity inhibition IC50 evaluation assay; format: biochemical; conditions: luminescence, 25 μM ATP, 50 μM PIP2, 2 hrs room temperature
Method: as §1
as §2, with “Substrate was diluted to an optimum concentration with the following buffer: 50 mM HEPES, pH 7.5, 3 mM MgCl2, 1 mM EGTA, 100 mM NaCl, 0.03% CHAPS, 2 mM DTT, 50 μM PIP2, 25 μM ATP; then added to a 384-well plate to initiate the reaction, and for PI3Kα, PI3Kβ and PI3Kγ at room temperature reacted for 1 hr, for PI3Kδ at room temperature reacted for 2 hrs.” left out

Chain of PI3Kγ (P48736 whole entry): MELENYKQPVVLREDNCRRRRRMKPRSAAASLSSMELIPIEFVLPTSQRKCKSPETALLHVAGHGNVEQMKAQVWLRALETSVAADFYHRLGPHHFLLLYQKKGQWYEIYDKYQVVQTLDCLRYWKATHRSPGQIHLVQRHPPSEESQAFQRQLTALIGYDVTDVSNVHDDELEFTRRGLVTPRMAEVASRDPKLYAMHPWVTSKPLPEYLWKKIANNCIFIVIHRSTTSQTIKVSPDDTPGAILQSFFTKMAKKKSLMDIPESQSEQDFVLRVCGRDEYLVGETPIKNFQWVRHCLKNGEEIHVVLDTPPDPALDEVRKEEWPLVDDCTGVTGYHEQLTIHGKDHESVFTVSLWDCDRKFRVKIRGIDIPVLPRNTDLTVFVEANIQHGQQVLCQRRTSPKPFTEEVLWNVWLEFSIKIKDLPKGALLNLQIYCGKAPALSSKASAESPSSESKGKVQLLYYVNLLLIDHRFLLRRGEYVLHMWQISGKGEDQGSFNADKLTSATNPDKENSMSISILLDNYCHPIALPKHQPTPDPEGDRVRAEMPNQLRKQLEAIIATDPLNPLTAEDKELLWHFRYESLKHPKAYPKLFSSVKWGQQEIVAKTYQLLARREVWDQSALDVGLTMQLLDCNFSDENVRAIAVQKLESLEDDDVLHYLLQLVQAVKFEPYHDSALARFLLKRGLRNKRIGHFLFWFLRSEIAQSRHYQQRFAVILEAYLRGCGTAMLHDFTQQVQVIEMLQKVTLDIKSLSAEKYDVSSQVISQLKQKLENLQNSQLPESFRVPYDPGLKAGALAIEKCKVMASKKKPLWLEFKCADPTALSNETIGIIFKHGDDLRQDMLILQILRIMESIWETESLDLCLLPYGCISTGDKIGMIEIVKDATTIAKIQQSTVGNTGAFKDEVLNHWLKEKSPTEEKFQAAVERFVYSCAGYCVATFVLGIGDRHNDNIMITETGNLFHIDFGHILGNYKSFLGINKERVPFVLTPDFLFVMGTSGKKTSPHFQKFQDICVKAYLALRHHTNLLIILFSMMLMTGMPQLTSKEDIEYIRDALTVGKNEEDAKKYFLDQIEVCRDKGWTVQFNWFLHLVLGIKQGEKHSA
Chain of PI3Kβ (P42338 whole entry): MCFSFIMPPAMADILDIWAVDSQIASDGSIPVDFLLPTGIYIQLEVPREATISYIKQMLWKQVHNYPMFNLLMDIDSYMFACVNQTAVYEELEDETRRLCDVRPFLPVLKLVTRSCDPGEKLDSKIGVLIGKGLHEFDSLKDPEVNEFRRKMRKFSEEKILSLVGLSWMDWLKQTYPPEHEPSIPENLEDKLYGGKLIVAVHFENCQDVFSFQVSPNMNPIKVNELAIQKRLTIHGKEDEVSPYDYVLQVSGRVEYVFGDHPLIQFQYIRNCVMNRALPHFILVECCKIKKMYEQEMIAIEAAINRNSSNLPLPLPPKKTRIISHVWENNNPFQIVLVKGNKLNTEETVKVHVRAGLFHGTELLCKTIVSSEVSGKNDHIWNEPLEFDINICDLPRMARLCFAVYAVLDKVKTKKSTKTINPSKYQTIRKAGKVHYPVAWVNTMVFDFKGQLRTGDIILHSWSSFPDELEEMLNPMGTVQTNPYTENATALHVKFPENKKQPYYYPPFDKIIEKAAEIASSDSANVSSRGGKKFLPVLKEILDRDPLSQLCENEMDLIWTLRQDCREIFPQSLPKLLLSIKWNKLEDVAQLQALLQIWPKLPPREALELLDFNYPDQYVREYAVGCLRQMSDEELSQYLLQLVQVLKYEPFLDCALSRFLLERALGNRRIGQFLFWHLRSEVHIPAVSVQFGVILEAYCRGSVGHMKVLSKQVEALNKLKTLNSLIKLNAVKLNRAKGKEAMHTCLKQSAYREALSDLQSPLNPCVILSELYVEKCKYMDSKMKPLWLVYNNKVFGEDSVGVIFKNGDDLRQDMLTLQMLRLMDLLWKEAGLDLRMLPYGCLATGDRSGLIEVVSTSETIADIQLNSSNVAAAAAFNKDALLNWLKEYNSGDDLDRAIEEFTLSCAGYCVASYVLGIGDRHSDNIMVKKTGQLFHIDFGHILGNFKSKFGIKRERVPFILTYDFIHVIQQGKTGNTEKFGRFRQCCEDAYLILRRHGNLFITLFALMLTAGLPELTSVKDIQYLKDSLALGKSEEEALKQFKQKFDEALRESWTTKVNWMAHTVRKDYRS
Chain of PI3Kβ (P27986 whole entry partner): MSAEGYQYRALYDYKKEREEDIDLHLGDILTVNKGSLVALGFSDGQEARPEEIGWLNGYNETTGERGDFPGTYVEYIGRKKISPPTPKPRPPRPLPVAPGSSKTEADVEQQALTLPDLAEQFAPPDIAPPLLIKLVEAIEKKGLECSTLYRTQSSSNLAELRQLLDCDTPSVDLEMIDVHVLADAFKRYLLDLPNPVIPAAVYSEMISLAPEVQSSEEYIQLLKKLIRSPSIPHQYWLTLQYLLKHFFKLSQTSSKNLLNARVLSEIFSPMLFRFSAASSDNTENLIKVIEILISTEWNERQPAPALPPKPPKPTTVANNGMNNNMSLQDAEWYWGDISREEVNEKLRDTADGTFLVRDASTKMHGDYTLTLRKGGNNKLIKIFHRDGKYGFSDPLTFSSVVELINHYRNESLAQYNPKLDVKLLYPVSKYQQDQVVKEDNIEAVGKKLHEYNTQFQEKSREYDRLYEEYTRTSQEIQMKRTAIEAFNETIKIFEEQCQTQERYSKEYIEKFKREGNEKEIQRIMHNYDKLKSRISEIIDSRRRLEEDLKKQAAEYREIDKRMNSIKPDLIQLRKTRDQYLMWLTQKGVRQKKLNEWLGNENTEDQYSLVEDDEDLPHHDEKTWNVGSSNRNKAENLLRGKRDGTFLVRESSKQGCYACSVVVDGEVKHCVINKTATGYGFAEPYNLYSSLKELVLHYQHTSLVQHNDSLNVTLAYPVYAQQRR
Chain of PI3Kα (P42336 whole entry): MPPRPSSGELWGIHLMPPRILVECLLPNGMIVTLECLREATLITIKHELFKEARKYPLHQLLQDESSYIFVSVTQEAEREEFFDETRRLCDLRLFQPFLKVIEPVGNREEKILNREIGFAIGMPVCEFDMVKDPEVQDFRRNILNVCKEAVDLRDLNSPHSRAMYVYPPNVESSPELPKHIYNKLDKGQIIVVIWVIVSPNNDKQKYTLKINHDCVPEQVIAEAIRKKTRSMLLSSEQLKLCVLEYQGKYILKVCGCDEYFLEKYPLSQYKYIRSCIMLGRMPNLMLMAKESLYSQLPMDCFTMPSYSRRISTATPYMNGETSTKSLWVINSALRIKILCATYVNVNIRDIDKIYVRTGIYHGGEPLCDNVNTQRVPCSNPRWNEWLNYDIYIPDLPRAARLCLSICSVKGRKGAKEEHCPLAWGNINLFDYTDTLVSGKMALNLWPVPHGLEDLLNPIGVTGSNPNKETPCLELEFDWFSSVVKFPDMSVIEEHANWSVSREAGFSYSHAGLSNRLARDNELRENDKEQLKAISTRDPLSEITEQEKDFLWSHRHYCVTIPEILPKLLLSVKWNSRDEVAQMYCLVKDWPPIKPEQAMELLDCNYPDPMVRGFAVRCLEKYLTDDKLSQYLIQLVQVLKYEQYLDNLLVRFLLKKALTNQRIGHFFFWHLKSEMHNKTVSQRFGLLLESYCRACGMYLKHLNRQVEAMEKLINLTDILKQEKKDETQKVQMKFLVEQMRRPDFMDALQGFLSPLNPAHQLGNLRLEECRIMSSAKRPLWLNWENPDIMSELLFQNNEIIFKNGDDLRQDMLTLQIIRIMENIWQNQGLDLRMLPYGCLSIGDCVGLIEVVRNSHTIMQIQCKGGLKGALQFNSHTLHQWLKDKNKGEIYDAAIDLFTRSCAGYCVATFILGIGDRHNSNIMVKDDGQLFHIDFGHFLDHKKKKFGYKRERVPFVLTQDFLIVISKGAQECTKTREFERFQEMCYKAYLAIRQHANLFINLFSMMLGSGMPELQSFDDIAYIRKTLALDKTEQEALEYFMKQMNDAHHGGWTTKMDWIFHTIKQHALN
Chain of PI3Kα (P27986 whole entry partner): as the sequence (P27986 whole entry partner) above
Chain of PI3Kδ (O00329 whole entry): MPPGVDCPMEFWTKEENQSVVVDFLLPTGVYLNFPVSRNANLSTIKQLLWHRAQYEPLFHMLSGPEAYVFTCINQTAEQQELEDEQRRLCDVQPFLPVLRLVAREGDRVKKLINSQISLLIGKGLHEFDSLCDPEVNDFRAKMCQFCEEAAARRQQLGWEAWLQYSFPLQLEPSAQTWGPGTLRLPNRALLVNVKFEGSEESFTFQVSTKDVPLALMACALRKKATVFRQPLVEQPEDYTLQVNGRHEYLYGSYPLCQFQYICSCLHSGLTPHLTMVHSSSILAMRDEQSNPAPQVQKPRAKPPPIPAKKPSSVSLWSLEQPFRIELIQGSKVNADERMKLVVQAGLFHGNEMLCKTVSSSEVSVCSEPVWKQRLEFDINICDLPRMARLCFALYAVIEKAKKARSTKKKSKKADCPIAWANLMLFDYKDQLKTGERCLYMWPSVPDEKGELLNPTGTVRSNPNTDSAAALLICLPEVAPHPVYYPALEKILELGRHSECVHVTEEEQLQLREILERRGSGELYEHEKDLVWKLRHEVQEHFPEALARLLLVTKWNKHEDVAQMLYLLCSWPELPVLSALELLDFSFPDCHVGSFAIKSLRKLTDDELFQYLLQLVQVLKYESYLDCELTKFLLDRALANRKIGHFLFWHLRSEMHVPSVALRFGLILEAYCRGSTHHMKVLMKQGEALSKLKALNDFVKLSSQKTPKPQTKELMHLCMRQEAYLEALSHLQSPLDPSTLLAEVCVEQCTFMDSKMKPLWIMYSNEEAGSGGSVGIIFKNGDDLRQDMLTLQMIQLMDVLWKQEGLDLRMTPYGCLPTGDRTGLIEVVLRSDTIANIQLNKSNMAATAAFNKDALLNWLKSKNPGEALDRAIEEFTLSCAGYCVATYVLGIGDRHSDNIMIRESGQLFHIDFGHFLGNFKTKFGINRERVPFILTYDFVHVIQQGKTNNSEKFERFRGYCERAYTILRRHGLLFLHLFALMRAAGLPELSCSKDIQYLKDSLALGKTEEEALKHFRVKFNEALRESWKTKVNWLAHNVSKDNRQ
Chain of PI3Kδ (P27986 whole entry partner): as the sequence (P27986 whole entry partner) above

IC50 ([1]; Homo sapiens) [nM] | α/δ selectivity [2] | β/δ selectivity [3] | γ/δ selectivity [4] | IC50 [5] [nM] | IC50 [1] [nM] | SMILES
 | 147 |  |  | 7.1 | 2 | COc1ncc(-c2nc(N3CCOCC3)nc3c(CN4CCC(C(C)(C)O)CC4)c(C)sc23)cc1NS(C)(=O)=O [Compound 60]
 | 174 | 94 | >571 | 17.5 | 15.4 | COc1ncc(-c2nc(N3CCOCC3)nc3c(CN4CCN(C)CC4)c(C)sc23)cc1NS(C)(=O)=O [Compound 65]
 | 302 | 18 | >1298 | 7.7 | 10.6 | COc1ncc(-c2nc(N3CCOCC3)nc3c(CN4CCC(C(C)(C)OC)CC4)c(C)sc23)cc1NS(C)(=O)=O [Compound 78]
 | 374 |  |  | 24 | 43 | COc1ncc(-c2nc(N3CCOCC3)nc3c(CN4CCC(OC)CC4)c(C)sc23)cc1NS(=O)(=O)C1CC1 [Compound 81]
 | 136 | 25 | 402 | 12 |  | COc1ncc(-c2nc(N3CCOCC3)nc3c(CN4CCCCC4)c(C)sc23)cc1NS(C)(=O)=O [Compound 86]
 | 152 | 24 | 244 | 34 |  | COc1ncc(-c2nc(N3CCOCC3)nc3c(CN4CCC(C)(C)CC4)c(C)sc23)cc1NS(C)(=O)=O [Compound 99]
 | 146 | 16 | 200 | 9.3 |  | COc1ncc(-c2nc(N3CCOCC3)nc3c(CN4CCCC4)c(C)sc23)cc1NS(C)(=O)=O [Compound 102]
 | 176 |  |  | 8.4 | 9.3 | CCOC1CCN(Cc2c(C)sc3c(-c4cnc(OC)c(NS(C)(=O)=O)c4)nc(N4CCOCC4)nc23)CC1 [Compound 103]
 | 78 | 6 | 262 | 13 |  | COc1ncc(-c2nc(N3CCOCC3)nc3c(CN4CCC(O)CC4)c(C)sc23)cc1NS(C)(=O)=O [Compound 108]
 | 192 |  |  | 16 | 33.7 | COc1ncc(-c2nc(N3CCOCC3)nc3c(CN4CC(N(C)C)C4)c(C)sc23)cc1NS(C)(=O)=O [Compound 121]
 | 287 |  |  | 3.8 |  | COc1ncc(-c2nc(N3CCOCC3)nc3c(CN4CCC(OC(C)C)CC4)c(C)sc23)cc1NS(C)(=O)=O [Compound 145]
 | 12 |  |  | 15.6 |  | COc1ncc(-c2nc(N3CCOCC3)nc3c(OC4CCOCC4)c(C)sc23)cc1NS(C)(=O)=O [Compound 152]

Continued, compound first:

SMILES | IC50 ([1]; Homo sapiens) [nM] | α/δ selectivity [2] | β/δ selectivity [3] | γ/δ selectivity [4] | IC50 [5] [nM] | IC50 [1] [nM]
CC[C@H](Nc1ncnc2[nH]cnc12)c1nc2cccc(F)c2c(=O)n1-c1ccccc1 [CAL-101, idelalisib, reference compound] | 29.8 |  |  |  |  | 
CC(C)(O)C1CCN(Cc2csc3c(-c4cccc5[nH]ccc45)nc(N4CCOCC4)nc23)CC1 [Compound 4] |  | >282 | >282 | >282 | 35.4 | 
Cc1sc2c(-c3cccc4[nH]ccc34)nc(N3CCOCC3)nc2c1CN1CCN(C(=O)CO)CC1 [Compound 8] |  | 90 | 27 | 57 | 72 | 
c1cc(-c2nc(N3CCOCC3)nc3c(CN4CCN(C5CCOCC5)CC4)csc23)c2cc[nH]c2c1 [Compound 10] |  | >400 |  |  | 25 | 28
c1cc(-c2nc(N3CCOCC3)nc3c(CN4CCN(C5COC5)CC4)csc23)c2cc[nH]c2c1 [Compound 11] |  | >588 |  |  | 17 | 41.1
CC(=O)N1CCN(Cc2csc3c(-c4cccc5[nH]ccc45)nc(N4CCOCC4)nc23)CC1 [Compound 14] |  | 700 |  |  | 3.8 | 25.6
COc1ncc(-c2nc(N3CCOCC3)nc3c(CN4CCN(C(=O)CO)CC4)c(C)sc23)cc1NS(C)(=O)=O [Compound 71] |  | 13 |  |  | 6.8 | 8.6
COc1ncc(-c2nc(N3CCOCC3)nc3c(CN4CCC(C(C)(C)O)CC4)c(C)sc23)cc1NS(=O)(=O)C1CC1 [Compound 79] |  | 582 |  |  | 9.4 | 14.5
COc1ncc(-c2nc(N3CCOCC3)nc3c(CN4CCN(C(=O)C(F)(F)F)CC4)c(C)sc23)cc1NS(=O)(=O)C1CC1 [Compound 82] |  | 143 |  |  | 15 | 76.8
COc1ncc(-c2nc(N3CCOCC3)nc3c(CN4CCN(CC(F)(F)F)CC4)c(C)sc23)cc1NS(=O)(=O)C1CC1 [Compound 84] |  | >213 |  |  | 47 | 30.4
COc1ncc(-c2nc(N3CCOCC3)nc3c(CN4CCN(C(C)(C)C)CC4)c(C)sc23)cc1NS(C)(=O)=O [Compound 89] |  | 48 |  |  | 2.6 | 1.3
COc1ncc(-c2nc(N3CCOCC3)nc3c(CN4CCN(C(=O)C(F)(F)F)CC4)c(C)sc23)cc1NS(C)(=O)=O [Compound 90] |  | 69 |  |  | 4.9 | 31.2
COc1ncc(-c2nc(N3CCOCC3)nc3c(CN4CCN(C(C)C)CC4)c(C)sc23)cc1NS(C)(=O)=O [Compound 91] |  | 60 |  |  | 3.2 | 3.4
COc1ncc(-c2nc(N3CCOCC3)nc3c(CN4CCN(C(=O)CC#N)CC4)c(C)sc23)cc1NS(C)(=O)=O [Compound 100] |  | 17 |  |  | 17 | 5.7
COc1ncc(-c2nc(N3CCOCC3)nc3c(CN4CCC5(CC4)OCCO5)c(C)sc23)cc1NS(C)(=O)=O [Compound 104] |  | 159 | 19 | 377 | 4.3 | 
COc1ncc(-c2nc(N3CCOCC3)nc3c(CN4CCC5(CC4)CNC5)c(C)sc23)cc1NS(C)(=O)=O [Compound 106] |  | 129 | 72 | >392 | 25.5 | 
COc1ncc(-c2nc(N3CCOCC3)nc3c(CN4CCN(C(C)(C)C)CC4)c(C)sc23)cc1NS(=O)(=O)C1CC1 [Compound 109] |  | 251 | 723 | 1296 | 3.9 | 
COc1ncc(-c2nc(N3CCOCC3)nc3c(CN4CCC(N5CCC[C@H]5CO)CC4)c(C)sc23)cc1NS(C)(=O)=O [Compound 126] |  | 170 |  |  | 4.7 | 3.9
COc1ncc(-c2nc(N3CCOCC3)nc3c(CN4CCC(N5CCC[C@@H]5C)CC4)c(C)sc23)cc1NS(C)(=O)=O [Compound 127] |  | 38 |  |  | 5.8 | 1.5
COc1ncc(-c2nc(N3CCOCC3)nc3c(CN4CCc5sccc5C4)c(C)sc23)cc1NS(C)(=O)=O [Compound 143] |  | 107 |  |  | 32 | 
COc1ncc(-c2nc(N3CCOCC3)nc3c(CN4CCn5ccnc5C4)c(C)sc23)cc1NS(C)(=O)=O [Compound 144] |  | 56 |  |  | 3.4 | 
COc1ncc(-c2nc(N3CCOCC3)nc3c(CN4CCC(N5CC(F)(F)C5)CC4)c(C)sc23)cc1NS(C)(=O)=O [Compound 146] |  | 120 |  |  | 2.9 | 
COc1ncc(-c2nc(N3CCOCC3)nc3c(CN4CC(C(C)(C)O)C4)c(C)sc23)cc1NS(C)(=O)=O [Compound 151] |  | 41 |  |  | 15 | 
